In patent US20250034216A1, “STEREOSELECTIVE COVALENT LIGANDS FOR ONCOGENIC AND IMMUNOLOGICAL PROTEINS” (The Scripps Research Institute, priority 2021, published 2025):

Molecular target: T1, ZFAT_C392 (Homo sapiens, UniProt Q9P243)
T1 construct: endogenous in cells; host or cells: 22Rv1
T1 sequence (Q9P243 1-1243): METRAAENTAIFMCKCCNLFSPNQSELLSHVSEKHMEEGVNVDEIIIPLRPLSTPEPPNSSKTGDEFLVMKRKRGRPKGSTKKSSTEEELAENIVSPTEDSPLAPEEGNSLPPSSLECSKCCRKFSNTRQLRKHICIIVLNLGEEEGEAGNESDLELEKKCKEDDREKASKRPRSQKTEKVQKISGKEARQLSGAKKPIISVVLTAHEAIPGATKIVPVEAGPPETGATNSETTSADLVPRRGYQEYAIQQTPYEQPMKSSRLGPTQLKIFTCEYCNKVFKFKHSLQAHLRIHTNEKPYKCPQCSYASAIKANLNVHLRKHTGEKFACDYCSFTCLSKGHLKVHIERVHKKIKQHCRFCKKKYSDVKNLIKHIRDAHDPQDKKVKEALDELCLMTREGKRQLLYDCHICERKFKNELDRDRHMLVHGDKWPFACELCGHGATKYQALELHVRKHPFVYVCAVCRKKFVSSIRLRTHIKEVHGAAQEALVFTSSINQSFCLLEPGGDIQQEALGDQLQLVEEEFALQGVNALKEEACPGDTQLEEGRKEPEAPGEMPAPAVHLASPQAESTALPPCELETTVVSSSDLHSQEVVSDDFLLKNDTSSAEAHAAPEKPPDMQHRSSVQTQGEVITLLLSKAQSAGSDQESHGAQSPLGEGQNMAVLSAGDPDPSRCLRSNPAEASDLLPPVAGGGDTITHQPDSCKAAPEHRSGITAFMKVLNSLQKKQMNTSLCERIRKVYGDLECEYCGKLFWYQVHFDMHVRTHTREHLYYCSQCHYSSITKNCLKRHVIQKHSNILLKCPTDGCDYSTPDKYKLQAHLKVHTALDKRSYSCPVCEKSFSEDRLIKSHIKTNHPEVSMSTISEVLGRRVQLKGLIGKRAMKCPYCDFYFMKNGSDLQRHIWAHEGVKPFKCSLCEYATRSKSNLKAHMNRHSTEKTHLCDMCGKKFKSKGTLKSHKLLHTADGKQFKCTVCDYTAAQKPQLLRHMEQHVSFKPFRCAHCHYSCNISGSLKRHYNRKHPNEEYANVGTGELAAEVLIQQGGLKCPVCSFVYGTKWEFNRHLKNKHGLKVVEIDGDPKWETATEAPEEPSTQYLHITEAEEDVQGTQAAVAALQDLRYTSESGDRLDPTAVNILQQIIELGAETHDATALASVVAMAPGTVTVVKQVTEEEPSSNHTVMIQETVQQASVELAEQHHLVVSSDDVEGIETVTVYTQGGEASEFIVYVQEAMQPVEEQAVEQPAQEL
Test: IA-DTB cysteine engagement
Assay type: binding
Details: 22Rv1 cells, 20 μM probe, 1 h, relative to DMSO
In short: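 First, cells are exposed to electrophilic probes in situ. Next, lysates are labeled with IA-DTB (1 h, ambient temperature), reduced, alkylated and trypsin-digested. Then, IA-DTB peptides are enriched on streptavidin, TMT-labeled and analyzed, with ratios taken against DMSO channels.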

Going from `C=CC(=O)N1C[C@@H](c2ccc(Br)cc2)[C@H]1C(=O)Nc1cccc2cccnc12` [MY-1A, (2S,3R)-1-acryloyl-3-(4-bromophenyl)-N-(quinolin-8-yl)azetidine-2-carboxamide] to `C=CC(=O)N1C[C@H](c2ccc(Br)cc2)[C@@H]1C(=O)Nc1cccc2cccnc12` [MY-1B, (2R,3S)-1-acryloyl-3-(4-bromophenyl)-N-(quinolin-8-yl)azetidine-2-carboxamide], the “% engagement ZFAT_C392” value rises from 32.5% to 39%.

With `C=CC(=O)N1C[C@H](c2ccc(Br)cc2)[C@H]1C(=O)Nc1cccc2cccnc12` [MY-3A, (2S,3S)-1-acryloyl-3-(4-bromophenyl)-N-(quinolin-8-yl)azetidine-2-carboxamide] the “% engagement ZFAT_C392” value was 17.5%.
With `C=CC(=O)N1C[C@H](c2ccc(Br)cc2)[C@H]1C(=O)Nc1cccc2cccnc12` [MY-3B, (2S,3S)-1-acryloyl-3-(4-bromophenyl)-N-(quinolin-8-yl)azetidine-2-carboxamide] the “% engagement ZFAT_C392” value was 68.5%.
